# Experimental data taken from article PMC12040169 (PLOS Biology, 2025).
# Assay: in vitro
# Settings: human, hela cells, % viability
smiles,measurement,value
CC(C)Oc1ccc(C(=O)C2=C(O)C(=O)N(Cc3cccnc3)C2c2cccc([N+](=O)[O-])c2)cc1 (stereo not shown) [CBK264936],"viability at 28.5 h, 10 µM",89.2%
C/C(=N\NS(=O)(=O)c1ccc(C)cc1)C(C)(C)CC(=O)O [CBK263601],"viability at 28.5 h, 10 µM",102%
CC(=O)N1C[C@@H]2OCC(=O)N(Cc3ccccn3)[C@@H]2C1 [CBK289245],"viability at 28.5 h, 10 µM",95.8%
COc1ccc(-c2ccc3nnc(SCc4cccnc4)n3n2)cc1 [CBK287680],"viability at 28.5 h, 10 µM",108%
Clc1ccc(Nc2ncnc3c2cnn3-c2ccc(Cl)cc2)cc1 [CBK287356],"viability at 28.5 h, 10 µM",86.1%
O=C(O)c1ccc(N2C(=O)CC(N3CCN(C/C=C/c4ccccc4)CC3)C2=O)cc1 (stereo not shown) [CBK261402],"viability at 28.5 h, 10 µM",92.6%
CCOc1cc(/C=C2/SC(=S)N(c3cccc(C(F)(F)F)c3)C2=O)ccc1OCC(=O)O [CBK264965],"viability at 28.5 h, 10 µM",106%
Cc1cc(NC(=O)CC2CC2)c2ccccc2n1 [CBK116257],"viability at 28.5 h, 10 µM",98.6%
Cc1ccc(-n2c3nc(=O)n(C)c(=O)c-3cc3ccccc32)cc1 [CBK288007],"viability at 28.5 h, 10 µM",103%
O=S(=O)(Nc1cccc(Cl)c1)c1ccc(Cl)c(Cl)c1 [CBK044636],"viability at 28.5 h, 10 µM",79.3%
c1cnc(NCc2cc3n(n2)CCN(CC2CCCNC2)C3)nc1 (stereo not shown) [CBK306981],"viability at 28.5 h, 10 µM",102%
O=C(Nc1ccccn1)c1c(O)n(Cc2ccccc2)c2ccccc2c1=O [CBK291213],"viability at 28.5 h, 10 µM",90.3%
Cn1c(=O)c2[nH]c(-c3ccncc3)nc2n(C)c1=O [CBK287902],"viability at 28.5 h, 10 µM",92.5%
Nc1ncnc2[nH]c(SCc3nc4ccc(I)cc4c(=O)n3-c3ccccc3)nc12 [CBK267174],"viability at 28.5 h, 10 µM",96.2%
O=C(O)c1ccc(NS(=O)(=O)c2cccs2)cc1O [CBK092145],"viability at 28.5 h, 10 µM",101%
O=C(Nc1cccnc1)c1ccc(CN2CCC(Cc3ccccc3)CC2)cc1 [CBK264095],"viability at 28.5 h, 10 µM",94.9%
O=[N+]([O-])c1cc2c(cc1C(Nc1ccccn1)c1cc(Cl)c3cccnc3c1O)OCO2 (stereo not shown) [CBK267795],"viability at 28.5 h, 10 µM",83%
Fc1ccc(OCc2nnn[nH]2)c(F)c1 [CBK269473],"viability at 28.5 h, 10 µM",99.9%
CC1CC1c1nnc(C2(c3ccc(Br)cc3)CCOCC2)o1 (stereo not shown) [CBK304712],"viability at 28.5 h, 10 µM",94.1%
CC(C)c1ccc(S(=O)(=O)NCc2ccc(F)c(F)c2F)cc1 [CBK044717],"viability at 28.5 h, 10 µM",102%
CNC(=O)c1ccc(-c2ccc(C(C)=O)s2)nc1NCC1CC1 [CBK106307],"viability at 28.5 h, 10 µM",95.3%
CC(=O)N1CCC2(CC1)CC(O)c1cc(C)c(C)cc1O2 (stereo not shown) [CBK282826],"viability at 28.5 h, 10 µM",107%
CC(CCCC(C)(C)O)Nc1cncc(-c2cccc(Cl)c2)n1 (stereo not shown) [CBK037857],"viability at 28.5 h, 10 µM",90.1%
Cc1ccc(-c2nnc([C@H]3CCN(C(=O)NCc4ccccc4)C3)o2)cc1 [CBK289411],"viability at 28.5 h, 10 µM",93%
CC(=O)c1c(-c2ccc(C)cc2)nc2n(CCN3CCCCC3)c3ccccc3n12 [CBK278231C],"viability at 28.5 h, 10 µM",101%
COc1cc(OC)nc(CN2C(=O)C3(CC(=O)N(C)C3=O)c3cc(F)ccc32)n1 (stereo not shown) [CBK075475],"viability at 28.5 h, 10 µM",110%
O=C(O)CCC(=O)Nc1ccc(N2CCN(CCO)CC2)cc1 [CBK078486],"viability at 28.5 h, 10 µM",94.5%
Cc1nnnn1CCC(=O)NCCc1cn2ccccc2n1 [CBK306816],"viability at 28.5 h, 10 µM",121%
CCOC(=O)CNS(=O)(=O)c1cccc(Cl)c1C [CBK004702],"viability at 28.5 h, 10 µM",103%
Cc1nc(C)c(CCC(=O)Nc2cccc(F)c2)c(=O)[nH]1 [CBK305026],"viability at 28.5 h, 10 µM",90.3%
Cc1cc(OC(=O)C2CCC(CNC(=O)OC(C)(C)C)CC2)c2c3c(c(=O)oc2c1)CCCC3 (stereo not shown) [CBK083590],"viability at 28.5 h, 10 µM",102%
CCn1c(=O)c(C=Cc2cccc(Br)c2)nc2cc(C(=O)O)ccc21 [CBK295364],"viability at 28.5 h, 10 µM",110%
O=C1CCCN1c1ccc(S(=O)(=O)NC2C3CCCCC32)cc1 (stereo not shown) [CBK282842],"viability at 28.5 h, 10 µM",101%
CCNC(=O)Nc1ncc(-c2ccc3c(c2)OCCCO3)c2cccnc12 [CBK070634],"viability at 28.5 h, 10 µM",104%
O=c1[nH]c2ncc(-c3ccco3)nc2n1Cc1ccccn1 [CBK064349],"viability at 28.5 h, 10 µM",101%
COc1cc(CNCc2cccnc2)ccc1OCc1cccs1 [CBK270082C],"viability at 28.5 h, 10 µM",86.7%
O=C(c1cccc(F)c1)N1CCC(c2nnc3n2CCCCC3)CC1 [CBK284627],"viability at 28.5 h, 10 µM",103%
COCCNc1nccnc1-c1ccccc1F [CBK038044],"viability at 28.5 h, 10 µM",97.6%
Cc1ncc(CO)c(/C=N/N=C/c2ccc(O)c(O)c2)c1O [CBK265075],"viability at 28.5 h, 10 µM",103%
c1ccc(SCCCN2CCNCC2)cc1 [CBK266067G],"viability at 28.5 h, 10 µM",100%
CCc1nnc(NC(=O)CSc2ncnc3c2oc2ccccc23)s1 [CBK287392],"viability at 28.5 h, 10 µM",90.7%
COc1ccc([N+](=O)[O-])cc1N1CCN(C(=O)OC(C)(C)C)CC1 [CBK003504],"viability at 28.5 h, 10 µM",92.3%
Cc1ccc(S(=O)(=O)Nc2c(C(=O)O)[nH]c3ccccc23)cc1 [CBK049880],"viability at 28.5 h, 10 µM",72.6%
COc1ccc(/C(C)=N/NC(=N)SC2CC(=O)N(c3ccc(C(=O)O)cc3)C2=O)cc1F (stereo not shown) [CBK262805],"viability at 28.5 h, 10 µM",107%
Cc1cc(COc2nccnc2N2CCCC2)no1 [CBK115755],"viability at 28.5 h, 10 µM",91.3%
Nc1ncc(-c2ccncc2)nc1NCc1cccnc1 [CBK063879],"viability at 28.5 h, 10 µM",103%
Cc1ncc(CN(Cc2ccccn2)Cc2ccccc2Cl)n1C [CBK282128],"viability at 28.5 h, 10 µM",97.6%
CCN1CC2(CCC1=O)CCN(Cc1nncn1C(C)C)CC2 [CBK307460],"viability at 28.5 h, 10 µM",107%
O=C(Cn1cccc2cc(C3CCCNC3)nc1-2)N1CCCCCC1 (stereo not shown) [CBK285088],"viability at 28.5 h, 10 µM",93.2%
CN1C=NC2C1C(=O)N(CCn1c(=O)c3c(ncn3C)n(C)c1=O)C(=O)N2C (stereo not shown) [CBK268678],"viability at 28.5 h, 10 µM",101%
CCN1C(=O)C2(CC(=O)N(CCc3cccc(OC)c3)C2=O)c2cc(C)ccc21 (stereo not shown) [CBK075195],"viability at 28.5 h, 10 µM",96.7%
COc1cc(S(=O)(=O)NCc2ccc3c(c2)OCO3)c(OC)cc1Cl [CBK264972],"viability at 28.5 h, 10 µM",97.1%
O=C(CN1CCN(CCN2C(=O)c3cccc4cccc(c34)C2=O)CC1)c1ccc(Cl)cc1 [CBK265363],"viability at 28.5 h, 10 µM",78.1%
CSc1nc(NC(=O)c2ccccc2)cc(N2CCNCC2)n1 [CBK050266T],"viability at 28.5 h, 10 µM",93.6%
COc1ccc(C2=NN(c3ccccc3)C(c3cn(-c4ccccc4)nc3-c3ccccc3)C2)cc1 (stereo not shown) [CBK263230],"viability at 28.5 h, 10 µM",88.9%
COCOc1ccc(-c2nc(-c3cnc(OC)nc3OC)cnc2N)cc1 [CBK063991],"viability at 28.5 h, 10 µM",91.9%
CCOc1ccccc1N(CC(=O)O)S(=O)(=O)c1ccc(Cl)cc1 [CBK287144],"viability at 28.5 h, 10 µM",110%
c1ccc(CSc2nnc(-c3ccco3)o2)cc1 [CBK026283],"viability at 28.5 h, 10 µM",106%
O=S(=O)(Oc1ccc(-c2cnc3ccccc3n2)cc1)c1ccccc1 [CBK261104],"viability at 28.5 h, 10 µM",93.4%
Cc1ccc(S(=O)(=O)Nc2ccc(C(=O)Nc3ccc(S(=O)(=O)N4CCCCC4)cc3)cc2)cc1 [CBK269000],"viability at 28.5 h, 10 µM",101%
COc1ccc2c(c1)c(C(=O)N1CC(C)(C)C(C)(O)C1)c(C)n2C (stereo not shown) [CBK306896],"viability at 28.5 h, 10 µM",77.2%
CC(C)(C)Cc1ccc(CC(=O)O)c(OCc2ccccc2)n1 [CBK012508],"viability at 28.5 h, 10 µM",92.6%
Cc1cccn2cc(CCNC(=O)N3CCOCC3C3CC3)nc12 (stereo not shown) [CBK304033],"viability at 28.5 h, 10 µM",104%
COc1cccc(CN2CCC(Cc3ccccc3-c3ccc(C)cc3C)(C(=O)O)CC2)c1 [CBK286420],"viability at 28.5 h, 10 µM",95.5%
Cn1nc(C2CCN(C(=O)C3CCCCC3)CC2)c2cccnc21 [CBK284897],"viability at 28.5 h, 10 µM",78.6%
O=C(NCC(CN1CCOCC1)([N+](=O)[O-])[N+](=O)[O-])c1ccccc1 [CBK261339],"viability at 28.5 h, 10 µM",100%
CCN1CCN(C(=O)CN(C)S(=O)(=O)c2ccc(OC)c(Cl)c2)CC1 [CBK268091],"viability at 28.5 h, 10 µM",93.2%
O=C(Cc1cccc2ccccc12)Nc1ccccc1C(=O)O [CBK266325],"viability at 28.5 h, 10 µM",100%
CCCCc1cc(C[C@@H]2C[C@H](NC(=O)N3CCOCC3)C2(C)C)no1 [CBK289257],"viability at 28.5 h, 10 µM",87.9%
Cc1nnc(SCc2cc(=O)[nH]c(N3CCN(C)CC3)n2)s1 [CBK270106],"viability at 28.5 h, 10 µM",91.7%
CCOC(=O)C1CCN(C(=O)c2cccnc2NCc2ccc3c(c2)OCO3)CC1 [CBK160106],"viability at 28.5 h, 10 µM",118%
CN(CC(=O)O/N=C(\N)c1cccnc1)S(=O)(=O)c1ccccc1 [CBK267684],"viability at 28.5 h, 10 µM",94.3%
O=C(O)C1CC=CCC1C(=O)NCc1ccc(N2CCCC2=O)cc1 (stereo not shown) [CBK270081],"viability at 28.5 h, 10 µM",79.7%
CC(C)(C)c1cc(/C=N/Nc2nc3ccccc3[nH]2)cc(C(C)(C)C)c1O [CBK262247],"viability at 28.5 h, 10 µM",90.2%
Cc1ccc(C(=O)O)cc1S(=O)(=O)NCCCO [CBK267171],"viability at 28.5 h, 10 µM",96.9%
O=C(CSc1nc2ccccc2s1)OCC(=O)c1cccc([N+](=O)[O-])c1 [CBK262361],"viability at 28.5 h, 10 µM",111%
COC(=O)c1cn([C@H]2CO[C@H]3[C@@H]2OC[C@@H]3NC(=O)C2CCCCC2)nn1 [CBK289496],"viability at 28.5 h, 10 µM",98.4%
CCc1nc(CCn2ccc3nc(OC)c(C#N)cc3c2=O)no1 [CBK307668],"viability at 28.5 h, 10 µM",94.1%
CC(CCc1ccccc1)NC(=O)CN1CCOCC1 (stereo not shown) [CBK268994],"viability at 28.5 h, 10 µM",93%
CSCCC(NS(=O)(=O)c1ccc(I)cc1)C(=O)O (stereo not shown) [CBK268768],"viability at 28.5 h, 10 µM",98.6%
Cc1cccc(OCC2CCCN(C(=O)c3cn(C)cn3)C2)c1 (stereo not shown) [CBK307021],"viability at 28.5 h, 10 µM",83.4%
CN1C(=O)COc2ccccc2CCCC[C@@H]2[C@H]1CCCN2C(=O)Cn1ccnc1 [CBK292152],"viability at 28.5 h, 10 µM",110%
CCN(C(=O)C(C)N(C)Cc1c(C)nn(C2CCS(=O)(=O)C2)c1C)c1cccc2ccccc12 (stereo not shown) [CBK295206],"viability at 28.5 h, 10 µM",108%
COCC(=O)N1CCc2sccc2C1c1ccc(NCc2ccc(F)cc2F)cc1 (stereo not shown) [CBK286460],"viability at 28.5 h, 10 µM",100%
O=C(O)c1cc(C(=O)O)c2ccccc2n1 [CBK262304],"viability at 28.5 h, 10 µM",82.1%
CCN1CCCC1CNC(=O)c1ccc(-c2ccco2)nc1N1CCN(C(=O)c2ccco2)CC1 (stereo not shown) [CBK076206],"viability at 28.5 h, 10 µM",90.4%
CCCOC(=O)c1c(NC(=O)c2cc(-c3ccccc3)nc3ccccc23)sc2c1CCC(C)C2 (stereo not shown) [CBK262647],"viability at 28.5 h, 10 µM",93.9%
O=C(CSc1ncccc1C(=O)O)c1ccccc1 [CBK273178],"viability at 28.5 h, 10 µM",94.1%
